The text below walks through data of ChEMBL document CHEMBL4665636, “Spirooxindole-pyrrolidine heterocyclic hybrids promotes apoptosis through activation of caspase-3” (Bioorg Med Chem, 2019).

Activity calls are given as the source filed them. The calls are words filed in the database; no cut-off is given here.

Series [1] can be described thus: Cytotoxicity against human MCF10 cells assessed as reduction in cell viability up to 200 uM measured up to 48 hrs by MTT assay. It is filed as cell-based. The conditions noted are these: mcf10, 48 h.
The test system of series [2] is Jurkat. Description: Antiproliferative activity against human Jurkat cells assessed as reduction in cell proliferation measured after 24 hrs by MTT assay. Format: functional, cell-based.
The test system of series [3] is A549. In words: Antiproliferative activity against human A549 cells assessed as reduction in cell proliferation measured after 24 hrs by MTT assay. It is filed as functional, cell-based. As to conditions: A549, 24 h.
Series [4] relates to A549. In words: Antiproliferative activity against human A549 cells assessed as reduction in cell proliferation measured after 48 hrs by MTT assay. It is filed as functional, cell-based. As to conditions: A549, 48 h.
Series [5] is described as follows: Cytotoxicity against human PCS-130-010 cells assessed as reduction in cell viability up to 200 uM measured up to 48 hrs by MTT assay. Format: cell-based. The conditions noted are these: pcs-130-010, 48 h.
The subject of series [6] is Jurkat. In words: Antiproliferative activity against human Jurkat cells assessed as reduction in cell proliferation measured after 48 hrs by MTT assay. It is filed as functional, cell-based.
Series [7] relates to A549. In words: Induction of apoptosis in human A549 cells assessed as viable cells by measuring fluorescence intensity at IC50 measured after 48 hrs by annexicV-FITC/propidium iodide staining based flow cytometry analysis (reference value: 96.89 %). Format: functional.
Series [8] concerns A549. In words: Induction of apoptosis in human A549 cells assessed as distribution of cleaved caspase 3 in cytoplasm at IC50 after 24 to 48 hrs by FITC staining based microscopy analysis. It is filed as functional, cell-based. As to conditions: time hrs 24-48.
Series [9] has as its system A549. In words: Induction of apoptosis in human A549 cells assessed as early apoptotic cells at IC50 measured after 48 hrs by annexicV-FITC/propidium iodide staining based flow cytometry analysis (reference value: 0.33 %). It is filed as functional.
Series [10] concerns A549. In words: Induction of apoptosis in human A549 cells assessed as early apoptotic cells at IC50 measured after 48 hrs by annexicV-FITC/propidium iodide staining based flow cytometry analysis (reference value: 3.02 %). Format: functional.
For series [11], the system named is A549. Description: Induction of apoptosis in human A549 cells assessed as necrotic cells at IC50 measured after 48 hrs by annexicV-FITC/propidium iodide staining based flow cytometry analysis (reference value: 0 %). Format: functional.
In series [12] the test system is A549. Description: Induction of apoptosis in human A549 cells assessed as necrotic cells at IC50 measured after 24 hrs by annexicV-FITC/propidium iodide staining based flow cytometry analysis (reference value: 0.23 %). Format: functional.
For series [13], the system named is A549. In words: Induction of apoptosis in human A549 cells assessed as early apoptotic cells at IC50 measured after 24 hrs by annexicV-FITC/propidium iodide staining based flow cytometry analysis (reference value: 0.16 %). It is filed as functional.
Series [14] concerns A549. In words: Induction of apoptosis in human A549 cells assessed as effect on viable cells by measuring fluorescence intensity IC50 measured after 24 hrs by annexicV-FITC/propidium iodide staining based flow cytometry analysis (reference value: 96.25 %). It is filed as functional.
Series [15] concerns A549. In words: Induction of apoptosis in human A549 cells assessed as late apoptotic cells at IC50 measured after 24 hrs by annexicV-FITC/propidium iodide staining based flow cytometry analysis (reference value: 0.5 %). It is filed as functional.
Series [16] has as its system A549. In words: Induction of apoptosis in human A549 cells assessed as late apoptotic cells at IC50 measured after 48 hrs by annexicV-FITC/propidium iodide staining based flow cytometry analysis (reference value: 0 %). It is filed as functional.
In series [17] the test system is A549. In words: Induction of apoptosis in human A549 cells assessed as distribution of cleaved caspase 3 in nuclei at IC50 after 24 to 48 hrs by FITC staining based microscopy analysis. Format: functional, cell-based. As to conditions: time hrs 24-48.
Series [18] has as its system A549. Description: Induction of apoptosis in human A549 cells assessed as viable cells at IC50 measured after 48 hrs by annexicV-FITC/propidium iodide staining based flow cytometry analysis (reference value: 99.67 %). Format: functional.
For series [19], the system named is A549. In words: Induction of apoptosis in human A549 cells assessed as viable cells at IC50 measured after 24 hrs by annexicV-FITC/propidium iodide staining based flow cytometry analysis (reference value: 99.11 %). Format: functional.
Series [20] deals with A549. In words: Induction of apoptosis in human A549 cells at IC50 measured after 24 hrs by annexicV-FITC/propidium iodide staining based flow cytometry analysis (reference value: 3.63 %). It is filed as functional.

For `O=C1Nc2ccccc2C12NC(Cc1ccc(O)cc1)C([N+](=O)[O-])C2c1cccc([N+](=O)[O-])c1` (centres undefined), the Activity result in [1] and in series [5] was “Non-Toxic” in each case. For the same molecule, the IC50 in the series on Jurkat [2] was 74.6 µM; with A549 [3], 78.4 µM; with A549 [4] it was 117 µM; in the series with Jurkat [6], 48.6 µM.
In the case of `O=C1Nc2ccccc2C12NC(Cc1ccc(O)cc1)C([N+](=O)[O-])C2c1ccc(Cl)cc1` (centres undefined), the Activity result in series [1] and in series [5] was “Non-Toxic” each time. Further, the 50% inhibitory concentration (IC50) in the series on Jurkat [2] is 77.8 µM; with A549 [3], 74.4 µM; with A549 [4], 59.2 µM; in the series on Jurkat [6], 51.5 µM.
As to `O=C1Nc2ccccc2C12NC(Cc1ccc(O)cc1)C([N+](=O)[O-])C2c1ccc(Br)cc1` (centres undefined), the Activity result in series [1] and in [5] was “Non-Toxic” in each case. Further, the IC50 in the series with Jurkat [2] is 73.4 µM; in the series on A549 [3], 59.1 µM; in the series on A549 [4] it was 39.4 µM; in the series with Jurkat [6], 43.2 µM.
With `O=C1Nc2ccc(OC(F)(F)F)cc2C12NC(Cc1ccc(O)cc1)C([N+](=O)[O-])C2c1ccccc1` (centres undefined), the Activity result in series [1] and in series [5] was “Non-Toxic” throughout. Also, the half-inhibitory concentration (IC50) in the series on Jurkat [2] was 65.8 µM; in the series with A549 [3] it was 45.8 µM; in the series on A549 [4] it was 44.7 µM; in the series with Jurkat [6], 45 µM.
With `O=C1Nc2ccc(OC(F)(F)F)cc2C12NC(Cc1ccc(O)cc1)C([N+](=O)[O-])C2c1ccc(Cl)cc1` (centres undefined), the Activity entry in series [1] and in [5] was “Non-Toxic” in each case. In addition, the 50% inhibitory concentration (IC50) worked out at 67.7 µM with Jurkat [2], 44.9 µM in the series with A549 [3], 38.1 µM in the series on A549 [4] and 44.8 µM in the series on Jurkat [6].
Take `O=C1Nc2ccc(OC(F)(F)F)cc2C12NC(Cc1ccc(O)cc1)C([N+](=O)[O-])C2c1cccc([N+](=O)[O-])c1` (centres undefined): the Activity entry in series [1] and in series [5] was “Non-Toxic” in each case. The IC50 with Jurkat [2] came to 83.3 µM; with A549 [3], 65 µM; in the series with A549 [4], 61.2 µM; with Jurkat [6], 50.1 µM.
As for `O=C1Nc2ccccc2C12NC(Cc1ccc(O)cc1)C([N+](=O)[O-])C2c1ccccc1` (centres undefined), the Activity entry in series [1] and in [5] was “Non-Toxic” each time. Further, the IC50 in the series on Jurkat [2] was found to be 98.3 µM; with A549 [3], 78.9 µM; in the series with A549 [4] it was 66.6 µM; in the series with Jurkat [6] it was 61.6 µM.
`CC[C@@]1(O)C(=O)OCc2c1cc1n(c2=O)Cc2cc3ccccc3nc2-1` [CAMPTOTHECIN]: the Activity with A549 [7] came out at 39.71%; in the series on A549 [9], 30.71%; with A549 [10] it was 61.13%; in the series on A549 [11] it was 4.14%; in the series on A549 [12], 6.31%; with A549 [13], 10.49%. Besides, the Activity with A549 [14] amounted to 58.66%; in the series with A549 [15], 28.49%; in the series with A549 [16] it was 11.17%; in the series on A549 [18] it was 53.97%; in the series on A549 [19], 54.71%; in the series with A549 [20], 37.51%. The outcome in the series with A549 [8] and in the series on A549 [17] was Active. Also, the IC50 in the series with Jurkat [2] was determined as 51.5 µM; in the series with A549 [3] it was 50.9 µM; in the series with A549 [4] it was 32.1 µM; in the series on Jurkat [6], 22 µM.
Turning to `COc1ccc(C2C([N+](=O)[O-])C(Cc3ccc(O)cc3)NC23C(=O)Nc2ccccc23)cc1` (centres undefined), the Activity result in series [1] and in series [5] was “Non-Toxic” each time. The IC50 in the series with Jurkat [2] worked out at 76.2 µM; with A549 [3], 59.2 µM; with A549 [4], 47.8 µM; in the series on Jurkat [6] it was 47.5 µM.
With `Cc1ccc(C2C([N+](=O)[O-])C(Cc3ccc(O)cc3)NC23C(=O)Nc2ccc(OC(F)(F)F)cc23)cc1` (centres undefined), the Activity with A549 [7] was 29.53%; in series [1] it was “Non-Toxic”; with A549 [9], 24.18%; with A549 [10] it was 70.35%; in the series on A549 [11], 23.2%; with A549 [12] it was 0%. For the same molecule, the Activity is 31.45% in the series with A549 [13]; 38.62% with A549 [14]; “Non-Toxic” in series [5]; 9.63% in the series on A549 [15]; 17.79% in the series on A549 [16]; 34.83% with A549 [18]. Besides, the Activity worked out at 58.92% in the series with A549 [19] and 63.87% in the series with A549 [20]. The outcome in the series on A549 [8] and in the series on A549 [17] was Active. Further, the IC50 in the series with Jurkat [2] amounted to 52.8 µM; in the series with A549 [3], 38.7 µM; in the series on A549 [4], 29.6 µM; in the series with Jurkat [6], 42.9 µM.
With `COc1ccc(C2C([N+](=O)[O-])C(Cc3ccc(O)cc3)NC23C(=O)Nc2ccc(OC(F)(F)F)cc23)cc1` (centres undefined), the Activity result in series [1] and in series [5] was “Non-Toxic” each time. Besides, the IC50 worked out at 62.9 µM with Jurkat [2], 53.5 µM in the series with A549 [3], 41.6 µM in the series with A549 [4] and 42 µM in the series on Jurkat [6].
Regarding `Cc1ccc(C2C([N+](=O)[O-])C(Cc3ccc(O)cc3)NC23C(=O)Nc2ccccc23)cc1` (centres undefined), the Activity result in [1] and in series [5] was “Non-Toxic” each time. The IC50 in the series with Jurkat [2] is 114 µM; in the series on A549 [3], 106 µM; in the series with A549 [4], 56.7 µM; in the series with Jurkat [6] it was 47.8 µM.
Turning to `O=C1Nc2ccc(OC(F)(F)F)cc2C12NC(Cc1ccc(O)cc1)C([N+](=O)[O-])C2c1ccc(Br)cc1` (centres undefined), the Activity result in series [1] and in series [5] was “Non-Toxic” each time. Also, the IC50 worked out at 67.2 µM in the series on Jurkat [2], 51.4 µM in the series with A549 [3], 37.2 µM in the series on A549 [4] and 44.1 µM with Jurkat [6].
